Measurements: patent US20230114728A1 (Venatorx Pharmaceuticals, Inc., priority 2019, published 2023)
≈ marks a conversion by molar mass, not a printed value. Like-named read-outs stand apart in the source and are kept apart here.

Legend:
[1] = biological target: T1, E. coli K12 PBP3 (Escherichia coli, UniProt P0AD68); experiment: biochemical; assay type: binding
T1 construct: made in house
Source text: Example I: Experimental Method for Penicillin-Binding Protein Binding Assays with Bocillin-FL Via Fluorescence Polarization
To determine the ability of boronic acid-based test PBP inhibitors to bind Penicillin Binding Proteins (PBPs), Bocillin-FL (fluorescently-labeled penicillin V; ThermoFisher Scientific) was used in a fluorescence polarization (FP) competition binding assay to assess inhibitor binding to PBP2, PBP3 or PBP4 from Escherichia coli (K12), PBP3 from Pseudomonas aeruginosa (PA01), PBP1a, PBP2 and PBP3 from Acinetobacter baumannii (ATCC 19606), and PBP2 from Neiserria gonorrheae (FA19). PBPs were cloned and purified as described previously (E. coli PBPs, King, D. T, et al., ACS Infectious Diseases 2015, 1, 175-184; P. aeruginosa PBP3, Han et. al., PNAS 2010, 107 (51), 22002-22007; A. baumannii PBPs, Penwell et. al., Antimicrob. Agents Chemother. 2015, 59 (3), 1680-1689; N. gonorrhoeae PBP2, Singh et. al., J Biol. Chem. 2019, 294 (38), 14020-14032). To establish assay conditions for competition binding, enzyme titration/saturation binding experiments were initially performed. Bocillin-FL was prepared at 0.2 μM in a buffer comprised of 50 mM Hepes (pH 8.0), 300 mM NaCl and 5% (v/v) glycerol for reactions with E. coli, P. aeruginosa and N. gonorrhoeae PBPs, and 25 mM Tris (pH 8.0), 200 mM NaCl and 10% (v/v) glycerol and 0.005% (v/v) Tween 20 for reactions with A. baumannii PBPs. Saturation binding was performed by mixing 40 μl of PBP solutions ranging in concentrations from 0-24 μM with 40 μl of the 0.2 μM Bocillin-FL solution, in individual wells of a black 384-well microplate. FP was measured immediately upon mixing (Excitation, 490 nm; Emission, 520 nm; g-factor, 0.96), using a Cytation3 (BioTek) microplate reader and measured continuously for up to 120 minutes. […] The competition binding assay (80 μl final volume) was validated using beta-lactams and PBPs at final concentrations of: 1.5 μM, E. coli PBP3; 0.75 μM, P. aeruginosa PBP3; 1 μM A. baumannii PBP1a; 2.5 μM A. baumannii PBP2; 0.2 μM A. baumannii PBP3; and […] N. gonorrhoeae PBP2. Bocillin-FL was at 0.1 μM (0.05 μM with A. baumannii PBP1a) and beta-lactam concentrations ranged from 0-1000 μM. […] Bocillin-FL was added and the FP immediately measured for up to 60 minutes (90 minutes for E. coli PBP2). […] The beta-lactam potency was reported as the concentration of beta-lactam required to reduce the amount of PBP bound-Bocillin-FL by 50% (EC50). […] Binding assays for boronic acid PBP inhibitors were performed in an identical fashion for the respective PBPs

[2] = biological target: T2, P. aeruginosa PBP3 (Pseudomonas aeruginosa, UniProt G3XD46); experiment: Bocillin-FL fluorescence polarization competition binding assay, P. aeruginosa PBP3; conditions: fluorescence polarization competition binding assay using Bocillin-FL
T2 construct: made in house
How it was run: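 Binding of boronic acid inhibitors to purified Pseudomonas aeruginosa (PA01) PBP3 was measured by fluorescence polarization competition with Bocillin-FL, a fluorescent penicillin V. Reactions of 80 μl contained 0.75 μM PBP3 and 0.1 μM Bocillin-FL in 50 mM Hepes (pH 8.0), 300 mM NaCl and 5% (v/v) glycerol, in black 384-well plates. FP (Excitation 490 nm, Emission 520 nm) was read for up to 60 minutes. EC50 is the concentration that halves PBP-bound Bocillin-FL.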

[3] = system: P. aeruginosa ATCC 35151; experiment: Broth microdilution MIC in CAMHB; assay type: cell-based; conditions: Pseudomonas aeruginosa, ATCC35151; MHB; hyper-permeable strain; read-out: Minimum Inhibitory Concentration, P. aeruginosa ATCC 35151
How it was run: (§1)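 CLSI broth microdilution in CAMHB: 2-fold compound dilutions inoculated at 2-8×10^5 CFU/mL from 3-5 h log-phase cultures. Incubated at 37 °C for 16-20 h (Enterobacteriaceae, Pseudomonas); MIC read visually as lowest concentration without growth. Strains include hyper-permeable and efflux-deficient mutants.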

[4] = system: P. aeruginosa (ΔmexAB-oprM); experiment: Broth microdilution MIC in CAMHB; assay type: cell-based; conditions: Pseudomonas aeruginosa, read-out: Minimum Inhibitory Concentration, P. aeruginosa ΔmexAB-OprM
How it was run: as §1

[5] = system: E. coli AG100A; experiment: Broth microdilution MIC in CAMHB; assay type: cell-based; conditions: Escherichia coli, read-out: Minimum Inhibitory Concentration, E. coli AG100A
How it was run: as §1

[6] = system: K. pneumoniae UMM producing SHV-5 and KPC-2; experiment: Broth microdilution MIC in CAMHB; assay type: cell-based; conditions: Klebsiella pneumoniae, read-out: Minimum Inhibitory Concentration, K. pneumoniae UMM
How it was run: as §1

[7] = system: E. coli AG100; experiment: Broth microdilution MIC in CAMHB; assay type: cell-based; conditions: Escherichia coli, MHB, read-out: Minimum Inhibitory Concentration, E. coli AG100
How it was run: as §1

[8] = system: A. baumannii ATCC 19606; experiment: Broth microdilution MIC in CAMHB; assay type: cell-based; conditions: Acinetobacter baumannii, ATCC19606; MHB; read-out: Minimum Inhibitory Concentration, A. baumannii ATCC 19606
How it was run: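 Per CLSI broth microdilution, colonies were grown 3-5 h at 37° C in cation-adjusted Mueller Hinton broth, then diluted to a starting inoculum of 2-8×10^5 CFU/mL against 2-fold serial compound dilutions. Plates were incubated 16-20 h at 37° C, and MIC was read visually as the lowest concentration with no growth.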

[9] = system: K. pneumoniae 848844 producing SHV-11 and KPC-2; experiment: Broth microdilution MIC in CAMHB; assay type: cell-based; conditions: Klebsiella pneumoniae, read-out: Minimum Inhibitory Concentration, K. pneumoniae 848844
How it was run: as §1

[10] = system: E. coli D22; experiment: Broth microdilution MIC in CAMHB; assay type: cell-based; conditions: Escherichia coli, MHB, read-out: Minimum Inhibitory Concentration, E. coli D22
How it was run: as §1

[11] = system: E. coli 901C; experiment: Broth microdilution MIC in CAMHB; assay type: cell-based; conditions: Escherichia coli, MHB, read-out: Minimum Inhibitory Concentration, E. coli 901C
How it was run: as §1

[12] = system: K. pneumoniae SI-117 producing VIM-1; experiment: Broth microdilution MIC in CAMHB; assay type: cell-based; conditions: Klebsiella pneumoniae, read-out: Minimum Inhibitory Concentration, K. pneumoniae SI-117
How it was run: as §1

[13] = system: P. aeruginosa ATCC 27853; experiment: Broth microdilution MIC in CAMHB; assay type: cell-based; conditions: Pseudomonas aeruginosa, ATCC27853; MHB; read-out: Minimum Inhibitory Concentration, P. aeruginosa ATCC 27853
How it was run: as §1

[14] = system: E. coli ATCC 25922; experiment: Broth microdilution MIC in CAMHB; assay type: cell-based
How it was run: as §1

[15] = wild-type parent strain E. coli AG100
[16] = Escherichia coli, ATCC25922; MHB; E. coli ATCC 25922; read-out: Minimum Inhibitory Concentration, E. coli 25922

T2 sequence (G3XD46 whole entry): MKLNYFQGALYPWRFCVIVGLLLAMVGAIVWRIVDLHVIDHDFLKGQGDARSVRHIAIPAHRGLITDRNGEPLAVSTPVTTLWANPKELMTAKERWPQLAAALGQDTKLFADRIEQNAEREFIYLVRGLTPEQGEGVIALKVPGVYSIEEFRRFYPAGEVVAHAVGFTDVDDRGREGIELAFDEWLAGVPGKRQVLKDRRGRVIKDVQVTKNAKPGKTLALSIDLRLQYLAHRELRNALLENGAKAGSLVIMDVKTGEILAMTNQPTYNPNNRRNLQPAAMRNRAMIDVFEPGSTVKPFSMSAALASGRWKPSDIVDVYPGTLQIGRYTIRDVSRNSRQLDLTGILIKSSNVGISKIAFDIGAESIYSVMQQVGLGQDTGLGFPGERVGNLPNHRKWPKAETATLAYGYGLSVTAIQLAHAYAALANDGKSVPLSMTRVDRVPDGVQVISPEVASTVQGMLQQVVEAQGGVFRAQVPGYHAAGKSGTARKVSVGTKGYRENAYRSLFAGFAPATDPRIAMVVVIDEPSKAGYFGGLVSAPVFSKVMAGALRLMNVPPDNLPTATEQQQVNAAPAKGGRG
T1 sequence (P0AD68 1-577): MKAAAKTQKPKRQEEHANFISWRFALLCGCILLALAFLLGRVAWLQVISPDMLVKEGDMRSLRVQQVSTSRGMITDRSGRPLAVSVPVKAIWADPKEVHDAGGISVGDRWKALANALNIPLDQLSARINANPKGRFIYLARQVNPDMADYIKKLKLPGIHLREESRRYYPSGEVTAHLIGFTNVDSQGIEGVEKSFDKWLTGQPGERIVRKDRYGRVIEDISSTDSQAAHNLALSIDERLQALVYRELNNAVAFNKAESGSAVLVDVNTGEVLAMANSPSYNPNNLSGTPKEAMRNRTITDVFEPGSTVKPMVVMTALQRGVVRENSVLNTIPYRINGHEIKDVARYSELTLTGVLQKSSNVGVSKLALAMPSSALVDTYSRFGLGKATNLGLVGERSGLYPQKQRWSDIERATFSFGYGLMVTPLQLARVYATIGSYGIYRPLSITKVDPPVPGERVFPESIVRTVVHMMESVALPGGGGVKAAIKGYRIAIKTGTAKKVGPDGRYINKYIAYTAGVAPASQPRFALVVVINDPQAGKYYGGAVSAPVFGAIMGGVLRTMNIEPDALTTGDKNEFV

SMILES | EC50 [1] [µM] | P. aeruginosa PBP3 Potency [2] | MIC [3] [µg/mL] | MIC [4] [µg/mL] | MIC [5] [µg/mL] | MIC [6] [µg/mL] | MIC ([7]; E. coli AG100 (wild-type parent)) [µg/mL] | MIC [8] [µg/mL] | MIC [9] [µg/mL] | MIC ([10]; E. coli D22 (hyper-permeable)) [µg/mL] | MIC ([11]; E. coli 901C (hyper-permeable)) [µg/mL] | MIC [12] [µg/mL] | MIC [13] [µg/mL] | MIC ([14]; Escherichia coli, ATCC25922; E. coli ATCC 25922; MHB; read-out: Minimum Inhibitory Concentration, E. coli 25922) [µg/mL] | MIC [7, 15] [µg/mL] | MIC ([10]; hyper-permeable E. coli D22) [µg/mL] | MIC ([11]; hyper-permeable E. coli 901C) [µg/mL] | MIC [14, 16] [µg/mL]
NS(=O)(=O)Nc1ccc(F)c([C@@H](NC(=O)N2CCN(CC(F)(F)F)C(=O)C2=O)C(=O)N[C@H]2Cc3cccc(C(=O)O)c3OB2O)c1 (single isomer, unassigned) [Example 219] | < 30 | D (D represents a potency <10 μM) | 2 to 4 (≈ 2.97 to 5.93 µM) | 8 to 16 (≈ 11.9 to 23.7 µM) | 2 to 4 (≈ 2.97 to 5.93 µM) | 32 to 64 (≈ 47.5 to 94.9 µM) | 32 to 64 (≈ 47.5 to 94.9 µM) | > 128 | > 128 | 2 to 4 (≈ 2.97 to 5.93 µM) | 0.5 to 1 (≈ 0.741 to 1.48 µM) | 32 to 64 (≈ 47.5 to 94.9 µM) | > 128 | 32 to 64 (≈ 47.5 to 94.9 µM) |  |  |  | 
NCCN1CCCN(C(=O)N[C@@H](C(=O)N[C@H]2Cc3cccc(C(=O)O)c3OB2O)c2c(F)cc(O)cc2F)C1=O (single isomer, unassigned) [Example 230] | 30 to 500 | C (C represents a potency between 10 and 30 μM) | 2 to 4 (≈ 3.56 to 7.13 µM) | 32 to 64 (≈ 57 to 114 µM) | > 128 | 2 to 4 (≈ 3.56 to 7.13 µM) |  | > 128 | > 128 |  |  | 32 to 64 (≈ 57 to 114 µM) | > 128 |  | > 128 | > 128 | > 128 | > 128
CCN1C[C@H](C)N(C(=O)NC(C(=O)N[C@H]2Cc3cccc(C(=O)O)c3OB2O)c2c(F)cc(O)cc2F)C(=O)C1=O (stereo partly drawn) [Example 232, (3R)-3-(2-(2,6-difluoro-4-hydroxyphenyl)-2-((S)-4-ethyl-6-methyl-2,3-dioxopiperazine-1-carboxamido)acetamido)-2-hydroxy-3,4-dihydro-2H-benzo[e][1,2]oxaborinine-8-carboxylic acid] | < 30 | D (D represents a potency <10 μM) | 2 to 4 (≈ 3.48 to 6.96 µM) | 8 to 16 (≈ 13.9 to 27.9 µM) | 32 to 64 (≈ 55.7 to 111 µM) | < 0.25 |  | > 128 | 8 to 16 (≈ 13.9 to 27.9 µM) |  |  | 2 to 4 (≈ 3.48 to 6.96 µM) | > 128 |  | 32 to 64 (≈ 55.7 to 111 µM) | 32 to 64 (≈ 55.7 to 111 µM) | 32 to 64 (≈ 55.7 to 111 µM) | 8 to 16 (≈ 13.9 to 27.9 µM)
C[C@H]1CN(CCF)C(=O)C(=O)N1C(=O)NC(C(=O)N[C@H]1Cc2cccc(C(=O)O)c2OB1O)c1c(F)cc(O)cc1F (stereo partly drawn) [Example 233, (3R)-3-(2-(2,6-difluoro-4-hydroxyphenyl)-2-((S)-4-(2-fluoroethyl)-6-methyl-2,3-dioxopiperazine-1-carboxamido)acetamido)-2-hydroxy-3,4-dihydro-2H-benzo[e][1,2]oxaborinine-8-carboxylic acid] | < 30 | D (D represents a potency <10 μM) | 8 to 16 (≈ 13.5 to 27 µM) | > 128 | 32 to 64 (≈ 54 to 108 µM) | < 0.25 |  | > 128 | 8 to 16 (≈ 13.5 to 27 µM) |  |  | 2 to 4 (≈ 3.38 to 6.75 µM) | > 128 |  | 32 to 64 (≈ 54 to 108 µM) | 32 to 64 (≈ 54 to 108 µM) | 32 to 64 (≈ 54 to 108 µM) | 8 to 16 (≈ 13.5 to 27 µM)
C[C@H]1CN(CCN)C(=O)C(=O)N1C(=O)NC(C(=O)N[C@H]1Cc2cccc(C(=O)O)c2OB1O)c1c(F)cc(O)cc1F (stereo partly drawn) [Example 234, (3R)-3-(2-((S)-4-(2-aminoethyl)-6-methyl-2,3-dioxopiperazine-1-carboxamido)-2-(2,6-difluoro-4-hydroxyphenyl)acetamido)-2-hydroxy-3,4-dihydro-2H-benzo[e][1,2]oxaborinine-8-carboxylic acid] | < 30 | D (D represents a potency <10 μM) | 2 to 4 (≈ 3.39 to 6.79 µM) | 8 to 16 (≈ 13.6 to 27.2 µM) | 32 to 64 (≈ 54.3 to 109 µM) | 0.5 to 1 (≈ 0.848 to 1.7 µM) |  | > 128 | 8 to 16 (≈ 13.6 to 27.2 µM) |  |  | 2 to 4 (≈ 3.39 to 6.79 µM) | > 128 |  | 32 to 64 (≈ 54.3 to 109 µM) | 8 to 16 (≈ 13.6 to 27.2 µM) | 32 to 64 (≈ 54.3 to 109 µM) | 8 to 16 (≈ 13.6 to 27.2 µM)
